Data taken from PMC4294780, “Sustained signalling by PTH modulates IP3 accumulation and IP3 receptors through cyclic AMP junctions” (Journal of Cell Science, 2015).
Each block holds one molecule with its values, some of them ahead of it. Ends that are not written are not given here.

Key:
[1] = system: adenylyl cyclase; assay: Potentiation of carbachol-evoked Ca2+ signals by NKH477 in HEK-PR1 cells; type: cell-based; conditions: n = 3; for Peak [Ca2+]c: NKH477 200 µM, then carbachol 20 µM; for pEC50 / Δ[Ca2+]c (maximal potentiated increase): carbachol 20 µM
Excerpt: (§1) Results are shown as mean±s.e.m.

[2] = target: T1, PTH1R (Homo sapiens, UniProt Q03431); assay: Potentiation of carbachol-evoked Ca2+ signals by PTH analogues (fluo 4, HEK-PR1 cell populations); type: cell-based; conditions: then carbachol 20 µM in Ca2+-free HBS, n = 3, read-out: peak [Ca2+]c pEC50 (converted)
T1 construct: expressed in transfected cells
T1 sequence (Q03431 27-593): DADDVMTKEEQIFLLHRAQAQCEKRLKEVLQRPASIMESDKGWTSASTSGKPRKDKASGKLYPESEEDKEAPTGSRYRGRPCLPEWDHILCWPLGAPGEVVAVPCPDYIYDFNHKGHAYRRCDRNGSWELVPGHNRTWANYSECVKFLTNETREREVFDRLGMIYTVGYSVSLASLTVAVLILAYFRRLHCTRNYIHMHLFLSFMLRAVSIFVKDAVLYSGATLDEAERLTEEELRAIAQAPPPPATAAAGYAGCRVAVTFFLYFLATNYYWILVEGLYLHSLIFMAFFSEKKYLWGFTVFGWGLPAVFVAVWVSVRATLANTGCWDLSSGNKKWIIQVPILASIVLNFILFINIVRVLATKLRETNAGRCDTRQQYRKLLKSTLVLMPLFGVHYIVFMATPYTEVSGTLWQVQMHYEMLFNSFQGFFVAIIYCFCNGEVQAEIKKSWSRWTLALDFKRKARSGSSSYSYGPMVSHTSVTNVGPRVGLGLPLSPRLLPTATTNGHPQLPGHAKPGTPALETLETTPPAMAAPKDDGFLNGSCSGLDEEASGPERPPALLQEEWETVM
Method: Briefly, confluent cultures of HEK-PR1 grown in 96-well plates were loaded with fluo 4 by incubation with fluo 4AM (2 µM, 20°C) in HEPES-buffered saline (HBS). […] After 1 h, loading medium was replaced with HBS, and after 45 min cells were used at 20°C for measurements of [Ca^2+]c.
Concentration–effect relationships were fitted to Hill equations using Prism version 5 (GraphPad, San Diego, CA, USA). Results are shown as mean±s.e.m. […] All statistical comparisons are therefore between experiments performed in parallel and analysed using paired Student's t-tests.

[3] = target: T1, PTH1R; assay: Intracellular cAMP accumulation ([3H]adenine labelling) in HEK-PR1 cells; type: cell-based; conditions: n = 3, read-out: cAMP pEC50 (converted)
Method: These assays were performed under conditions that replicate those used for measurements of [Ca^2+]c. HEK-PR1 cells were grown in 24-well plates until ∼90% confluent, [^3H]adenine (2 µCi per well) was then added to the culture medium. After 2 h at 37°C in 5% CO2, the medium was removed, cells were washed with HBS, and used for experiments in HBS at 20°C. […] The activity of the eluates was determined by liquid scintillation counting and amounts of [^3H]cAMP are expressed as percentages of the sum of the activities recovered in the [^3H]cAMP, [^3H]ADP and [^3H]ATP fractions.

[4] = system: PTH1R; conditions: Table S1, properties from the literature; ref Cupp et al., 2013 and others listed in Table S1; cited from earlier work
[5] = system: PTH1R; set-up: method as in 2 sources, one per row (each row's own in cited_ref): ref Cupp et al., 2013 and others listed in Table S1 ||| ref supplementary material Table S1; conditions: Table S1, properties from the literature; ref Cupp et al., 2013 and others listed in Table S1; cited from earlier work
[6] = target: T1, PTH1R; assay: Ca2+ signals directly evoked by PTH analogues alone in HEK-PR1 cells; type: cell-based; conditions: highest concentrations of the analogue, no carbachol (Fig. 1F)
Method: (§2) HEK-PR1 cells (∼10^5 PTH1R/cell) were cultured as described previously ([Tovey et al., 2008]). Measurements of [Ca^2+]c in cell populations were performed as previously described ([Tovey et al., 2008]). Briefly, confluent cultures of HEK-PR1 grown in 96-well plates were loaded with fluo 4 by incubation with fluo 4AM (2 µM, 20°C) in HEPES-buffered saline (HBS). HBS had the following composition (in mM): NaCl 135, KCl 5.9, MgCl2 1.2, CaCl2 1.5, HEPES 11.6 and glucose 11.5, pH 7.3. After 1 h, loading medium was replaced with HBS, and after 45 min cells were used at 20°C for measurements of [Ca^2+]c. A fluorescence plate-reader equipped to allow automated fluid additions (FlexStation 3, Molecular Devices, Sunnyvale, CA, USA) was used to record fluorescence at intervals of 1.44 s (excitation at 485 nm; emission at >525 nm) ([Tovey et al., 2006]).

[7] = system: PKA; assay: Effect of PKA inhibitor H89 on PTH(1-34)-evoked cAMP and potentiated Ca2+ signals; type: cell-based; conditions: H89 10 µM, 20 min; for intracellular cAMP in H89-treated cells relative to matched control cells: mean±s.e.m., n = 3, SEM
Method: These assays were performed under conditions that replicate those used for measurements of [Ca^2+]c. HEK-PR1 cells were grown in 24-well plates until ∼90% confluent, [^3H]adenine (2 µCi per well) was then added to the culture medium. After 2 h at 37°C in 5% CO2, the medium was removed, cells were washed with HBS, and used for experiments in HBS at 20°C. Because many cells extrude cAMP into the extracellular medium ([Copsel et al., 2011]), reactions were terminated by first removing the medium and then adding ice-cold trichloroacetic acid (5% v/v, 1 ml). After 30 min on ice, [^3H]cAMP was separated from other ^3H-adenine nucleotides by sequential column chromatography on Dowex cation exchange resin and alumina as previously described ([Pantazaka et al., 2013]). The activity of the eluates was determined by liquid scintillation counting and amounts of [^3H]cAMP are expressed as percentages of the sum of the activities recovered in the [^3H]cAMP, [^3H]ADP and [^3H]ATP fractions.

[8] = system: HEK-PR1 cells; assay: Cytosolic IP3 measured with FRET sensor in single HEK-PR1 cells; type: cell-based; conditions: carbachol 1 mM; mean±s.e.m., n = 17 coverslips; SEM
Excerpt: A FRET sensor based on the IP3-binding core of IP3R1 ([Tovey and Taylor, 2013]) was used to measure cytosolic concentrations of IP3 in single HEK-PR1 cells under conditions similar to those used for measurements of [Ca^2+]c. The plasmid and properties of the sensor were as described previously ([Tovey and Taylor, 2013]). The sensor comprises the IP3-binding core attached through short linkers to enhanced cyan fluorescent protein (CFP) at its N-terminus and enhanced yellow fluorescent protein (YFP) at its C-terminus (see inset to Fig. 3A). IP3 binding causes a decrease in FRET. […] An Olympus IX71 inverted fluorescence microscope with a 40× objective and a 440 nm/520 nm dual band-pass dichroic mirror was used to record fluorescence from widefield images after excitation at 440 nm (to excite CFP). A Luca EMCCD camera (Andor Technology, Belfast, UK) was used to collect emitted fluorescence simultaneously at 1-s intervals from YFP (520–550 nm) and CFP (455–485 nm) using a Cairn Optosplit 2 image-splitter fitted with a 495-nm dichroic mirror. After correction for background fluorescence (determined from cytosolic areas of non-transfected cells), FRET ratios are presented as the ratio of CFP emission to YFP emission, so that the ratio increases (decreased FRET) after IP3 binding.

[9] = system: EPAC1 and EPAC2; assay: Effect of EPAC antagonist ESI-09 on Ca2+ signals in HEK-PR1 cells; type: cell-based
Method: as §2

[10] = system: HEK-PR1 cells; assay: Potentiation of carbachol-evoked Ca2+ signals by 8-Br-cAMP in HEK-PR1 cells; type: cell-based; conditions: n = 3; for Peak [Ca2+]c: 8-Br-cAMP 10 mM, then carbachol 20 µM; for pEC50 / Δ[Ca2+]c (maximal potentiated increase): carbachol 20 µM
Excerpt: as §1

[11] = PTH analogue 1 min, mean ± s.e.m., SEM

pEC50 ([1]; NKH477 2 min): 5.0 ± 0.3 /M
pEC50 ([1]; NKH477 5 min): 5.0 ± 0.1 /M
pEC50 ([1]; NKH477 15 min): 5.0 ± 0.1 /M
pEC50 ([1]; NKH477 30 min): 6.0 ± 0.1 /M
Molecule: C=C[C@@]1(C)CC(=O)[C@]2(O)[C@@]3(C)[C@@H](O)CCC(C)(C)[C@@H]3C(OC(=O)CCN(C)C)[C@H](OC(C)=O)[C@@]2(C)O1.Cl (stereo partly drawn) [NKH477, N,N-dimethyl-(3R,4aR,5S,6aS,10S,10aR,10bS)-5-(acetyloxy)-3-ethenyldodecahydro-10,10b-dihydroxy-3,4a,7,7,10a-pentamethyl-1-oxo-1H-naphtho[2,1-b]pyran-6-yl ester β-alanine hydrochloride]
Peak [Ca2+]c ([1]; 2 min): 331 ± 20 nM
Peak [Ca2+]c ([1]; 30 min): 256 ± 12 nM
Δ[Ca2+]c (maximal potentiated increase) ([1]; NKH477 2 min): 257 ± 3 nM
Δ[Ca2+]c (maximal potentiated increase) ([1]; NKH477 5 min): 225 ± 9 nM
Δ[Ca2+]c (maximal potentiated increase) ([1]; NKH477 15 min): 155 ± 10 nM
Δ[Ca2+]c (maximal potentiated increase) ([1]; NKH477 30 min): 124 ± 24 nM

EC50 [2, 11]: 126 nM
EC50 ([2]; PTH analogue 30 min): 50.1 nM
EC50 ([3]; PTH analogue 1 min): 316 nM
EC50 ([3]; PTH analogue 30 min): 63.1 nM
Molecule: VSEIQLMHNLGKHLNSMERVEWLRKKLQDVHNFVALG [PTH(2-38)]

Molecule: PTH(3-34): PTH analogue not used in this study, included for comparison with earlier work (SEIQLMHNLGKHLNSMERVEWLRKKLQDVHNF; Parathyroid hormone; UniProt P01270 34-65, looked up, fragment)
Gq (PLC) [4]: Inactive
Signalling to AC from internalized PTH1R [5]: No

direct Ca2+ signal evoked by the analogue alone [6]: directly evoked small Ca^2+ signals
Molecule: SVSEIQLMHNLGKHLNSMERVEWLRKKLQDV [PTH(1-31), analogue of PTH that stimulates adenylyl cyclase]
Signalling to AC from internalized PTH1R [5]: Yes

Molecule: Cl.Cl.O=S(=O)(NCCNCC=Cc1ccc(Br)cc1)c1cccc2cnccc12 [H89, N-[2-[[3-(4-bromophenyl)-2-propenyl]amino]ethyl]-5-isoquinolinesulfonamide dihydrochloride]
effect of PKA inhibition on acute and sustained effects of PTH(1-34), NKH477 or 8-Br-cAMP on carbachol-evoked Ca2+ signals [7]: no effect
intracellular cAMP in H89-treated cells relative to matched control cells ([7]; 3 µM PTH(1-34) for 1 min): 95±0.1%
intracellular cAMP in H89-treated cells relative to matched control cells ([7]; 3 µM PTH(1-34) for 60 min): 98±0.2%

Molecule: C[N+](C)(C)CCOC(N)=O [carbachol, Carbamylcholine chloride]
transfected cells responding with discernible FRET changes [8]: 52±2%

EC50 [2, 11]: 200 nM
EC50 ([2]; PTH analogue 30 min): 39.8 nM
EC50 ([3]; PTH analogue 1 min): 794 nM
EC50 ([3]; PTH analogue 30 min): 200 nM
Molecule: CC[C@H](C)[C@H](NC(=O)[C@H](CCC(=O)O)NC(=O)[C@H](CO)NC(=O)[C@@H](NC(=O)[C@@H](N)Cc1ccc(O)cc1)C(C)C)C(=O)N[C@@H](CCC(N)=O)C(=O)N[C@@H](CC(C)C)C(=O)N[C@@H](CCSC)C(=O)N[C@@H](Cc1c[nH]cn1)C(=O)N[C@@H](CC(N)=O)C(=O)N[C@@H](CC(C)C)C(=O)NCC(=O)N[C@@H](CCCCN)C(=O)N[C@@H](Cc1c[nH]cn1)C(=O)N[C@@H](CC(C)C)C(=O)N[C@@H](CC(N)=O)C(=O)N[C@@H](CO)C(=O)N[C@@H](CCSC)C(=O)N[C@@H](CCC(=O)O)C(=O)N[C@@H](CCCNC(=N)N)C(=O)N[C@H](C(=O)N[C@@H](CCC(=O)O)C(=O)N[C@@H](Cc1c[nH]c2ccccc12)C(=O)N[C@@H](CC(C)C)C(=O)N[C@@H](CCCNC(=N)N)C(=O)N[C@@H](CCCCN)C(=O)N[C@@H](CCCCN)C(=O)N[C@@H](CC(C)C)C(=O)N[C@@H](CCC(N)=O)C(=O)N[C@@H](CC(=O)O)C(=O)N[C@H](C(=O)N[C@@H](Cc1c[nH]cn1)C(=O)N[C@@H](CC(N)=O)C(=O)N[C@@H](Cc1ccccc1)C(=O)O)C(C)C)C(C)C [Tyr1PTH(1-34)]

Molecule: CC(C)(C)c1cc(C(=O)C(C#N)=NNc2cccc(Cl)c2)no1 [ESI-09, 3-[5-(tert-butyl)isoxazol-3-yl]-2-[2-(3-chlorophenyl)hydrazono]-3-oxopropanenitril]
effect on Ca2+ signals evoked by carbachol alone ([9]; ESI-09 10 µM, 5 min): no significant effect
effect on concentration-dependent potentiation by PTH(1-34) of carbachol-evoked Ca2+ signals ([9]; ESI-09 10 µM, 5 min): no significant effect
effect on small Ca2+ signals directly evoked by high concentrations of PTH(1-34) ([9]; ESI-09 10 µM, 5 min): no significant effect
effect on potentiation of carbachol-evoked Ca2+ signals by 8-Br-cAMP ([9]; ESI-09 10 µM, added 5 min before 8-Br-cAMP): unaffected
effect on carbachol-evoked Ca2+ release ([9]; higher concentrations of ESI-09 (50 µM) or more prolonged treatments (15 min)): directly inhibited carbachol-evoked Ca^2+ release

Molecule: Nc1ncnc2c1nc(Br)n2[C@@H]1O[C@@H]2COP(=O)(O)O[C@H]2[C@H]1O [8-Br-cAMP]
Peak [Ca2+]c ([10]; 5 min): 386 ± 21 nM
Peak [Ca2+]c ([10]; 30 min): 222 ± 24 nM
pEC50 ([10]; 8-Br-cAMP 5 min): 3.5 ± 0.1 /M
Δ[Ca2+]c (maximal potentiated increase) ([10]; 8-Br-cAMP 5 min): 207 ± 7 nM
pEC50 ([10]; 8-Br-cAMP 30 min): 3.7 ± 0.1 /M
Δ[Ca2+]c (maximal potentiated increase) ([10]; 8-Br-cAMP 30 min): 113 ± 5 nM
